Test results reported in patent US10988465B2, “CXCR4 inhibitors and uses thereof” (X4 Pharmaceuticals, Inc., priority 2016, dated 2021).
Like-named read-outs stand apart in the source and are kept apart here.

Experiments:
[1] = molecular target: T1, Jurkat cells expressing CXCR4 (Homo sapiens, UniProt P61073); assay: Chemokine (CXCL12-AF647) binding inhibition assay; conditions: CXCL12-AF647 25 ng/mL, read-out: IC50 CXCL-12 binding Jurkat
T1 construct: endogenous in cells; host or cells: Jurkat
Method in brief: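 Cells in HBSS, 20 mM HEPES, 0.2% BSA, pH 7.4, preincubated 15 min at room temperature with compound, then 25 ng/mL CXCL12-AF647 for 30 min. After washing and paraformaldehyde fixation, bound ligand read by flow cytometry; percent inhibition calculated from MFI relative to unlabeled and ligand-only controls.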

[2] = molecular target: T2, CXCR-4 transfected U87 cell line (U87.CXCR4) (Homo sapiens, UniProt P61073); assay: Intracellular CXCL-12-induced calcium mobilization assay (FLIPR); format: cell-based; conditions: U87.CXCR4 cells; CXCL-12 25-50 ng/mL; compound added 15 min before; read-out: IC50 CXCL-12 Ca^2+ flux U87.CXCR4+
T2 construct: expressed in transfected cells; host or cells: U87 (U87.CXCR4)
Method in brief: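 U87 cells stably expressing human CXCR4, loaded with Fluo-2 AM (4 μM final) for 45 min at 37 °C in HBSS/20 mM HEPES/0.2% BSA, pH 7.4. Calcium flux triggered by CXCL-12 (25-50 ng/mL) was followed by FLIPR fluorescence over time at 37 °C.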

[3] = Mouse brain uptake assay (MBUA), 3 mg/kg IV, 0-1 h, 3 time points; format: in vivo, male CD1 mice; conditions: for Kp / clearance / half-life / AUC(0-t) / Kp uu: male; for Kp: CD1, mouse, brain/plasma, iv, 3 mg/kg; for clearance / half-life: CD1, plasma, 3 time points; for clearance / half-life / AUC(0-t) / Kp uu / fraction unbound: mouse; for clearance / half-life / AUC(0-t) / Kp uu: 3 mg/kg IV, 0-1 h; for half-life: read-out: t½ (converted); for AUC(0-t) / Kp uu: CD1; for Kp uu: unbound brain/unbound plasma
Method: Example 38: Pharmacokinetics and Brain Penetration Experiment to Determine Brain and Plasma Concentrations of Compounds after IV Administration to Male CD1 Mice
The study design (9 animals) consisted of administrating the drug (IV: 3 mg/kg (5 mL/kg) via tail vein injection) and collecting samples at terminal bleeding for plasma and brain at 0.083, 0.5 and 1 h. The IV dosing solution was prepared in 50 mM citrate buffer (pH 4.0) at 0.6 mg/mL. The blood collection was performed as follows: the animal was restrained manually and approximately 150 μL blood/time point was collected into a dipotassium EDTA tube via retro orbital puncture under anesthesia with isoflurane. The blood sample was put on ice and centrifuged to obtain a plasma sample (2000 g, 5 min under 4° C.) within 15 minutes. The brain collection was performed as follows: a mid-line incision was made in the animal's scalp and the skin was retracted. Using small bone cutters and rongeurs, the skull overlying the brain was removed. The brain was removed using a spatula and the brain rinsed with cold saline. The brain was placed in screw-top tubes, and the tubes were stored at −70° C. until analysis.
An aliquot of 30 μL sample was added to 150 μL MeCN containing 50 ng/mL IS (Dexamethasone). The mixture was vortexed for 5 min and centrifuged at 14,000 rpm for 5 min. An aliquot of 5 μL supernatant was injected for LC-MS/MS analysis.
An aliquot of 30 μL brain homogenate (brain:PBS=1:3, w/v) sample was added to 150 μL IS in MeCN (Dexamethasone, 50 ng/mL). The mixture was vortexed for 5 min and centrifuged at 14,000 rpm for 5 min. An aliquot of 5 μL supernatant was injected for LC-MS/MS analysis.
The sample analysis was performed on LCMS/MS-003 (API4000, triple quadruple) under the following conditions: positive ion, ESI, MRM detection using dexamethasone as internal standard. HPLC conditions: mobile phase A: H2O (0.025% formic acid (FA) with 1 mM NH4OAc); mobile phase B: MeOH (0.025% FA with 1 mM NH4OAc) on Waters X-Bridge C18 (2.1×50 mm, 2.5 μm) column at 60° C.

in vitro = conditions: human, Caco-2, pH 7.4
Method in brief: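 Caco-2 monolayers, checked by TEER with Lucifer yellow as marker, were dosed with 10 μM compound in HBSS pH 7.4 in A-to-B and B-to-A directions. Incubation was 90 min at 37° C, in duplicate. Samples were quantified by LC-MS/MS and Papp calculated.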

[4] = fraction unbound to brain proteins, read-out: Fu (b) %
[5] = fraction unbound to plasma proteins, read-out: Fu (p) %

T1 sequence (P61073 whole entry): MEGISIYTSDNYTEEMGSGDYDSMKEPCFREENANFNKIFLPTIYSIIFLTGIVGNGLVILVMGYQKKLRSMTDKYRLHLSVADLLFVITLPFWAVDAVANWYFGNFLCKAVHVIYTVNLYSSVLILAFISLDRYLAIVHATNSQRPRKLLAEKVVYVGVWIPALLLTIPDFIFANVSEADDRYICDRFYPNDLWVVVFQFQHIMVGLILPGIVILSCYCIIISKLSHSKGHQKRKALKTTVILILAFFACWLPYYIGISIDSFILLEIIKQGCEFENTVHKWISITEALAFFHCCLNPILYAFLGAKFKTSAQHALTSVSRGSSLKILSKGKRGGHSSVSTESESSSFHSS
T2 sequence (P61073 whole entry): as above

| IC50 [1] | IC50 [2] | Kp [3] | clearance [3] | half-life [3] | AUC(0-t) ([3]; brain, read-out: AUClast (b)) | AUC(0-t) ([3]; plasma, read-out: AUClast (P)) | Kp uu [3] | fraction unbound [3, 4] | fraction unbound [3, 5] | Papp A→B at 90 min, 10 μM (in vitro) | Papp B→A at 90 min, 10 μM (in vitro) | efflux ratio at 90 min, 10 μM (in vitro) | Kp uu ([3]; read-out: Kp, uu) | SMILES |
| --- | --- | --- | --- | --- | --- | --- | --- | --- | --- | --- | --- | --- | --- | --- |
| 0.01 to 100 nM | 0.01 to 100 nM | 0.41 | 375 mL/min/kg | 18.1 min | 49.7 ng·h/mL | 120 ng·h/mL | 0 | 0.002 | 0.189 | 0.1 to 10 ×10⁻⁶ cm/s | 0.1 to 10 ×10⁻⁶ cm/s | 0.1 to 10 | – | Cc1cccnc1[C@@H]1CCC[C@H](c2nc3ccccc3n2CC2CCN(C(C)C)CC2)N1C [I-23, 1-((1-isopropylpiperidin-4-yl)methyl)-2-((2R,6S)-1-methyl-6-(3-methylpyridin-2-yl)piperidin-2-yl)-1H-benzo[d]imidazole] |
| 0.01 to 100 nM | 0.01 to 100 nM | 0.35 | 101 mL/min/kg | 38.2 min | 112 ng·h/mL | 316 ng·h/mL | – | 0.018 | 0.163 | 0.1 to 10 ×10⁻⁶ cm/s | 10 to 30 ×10⁻⁶ cm/s | 0.1 to 10 | 0.04 | Cc1cccnc1[C@@H]1CCC[C@H](c2nc3cccc(N4CCN(C)CC4)c3[nH]2)N1 [I-83] |
| 0.01 to 100 nM | 0.01 to 100 nM | 0.31 | 132 mL/min/kg | 23.2 min | 99.7 ng·h/mL | 313 ng·h/mL | – | 0.048 | 0.215 | 0.1 to 10 ×10⁻⁶ cm/s | 10 to 30 ×10⁻⁶ cm/s | 0.1 to 10 | 0.07 | COc1cccnc1[C@@H]1CCC[C@H](c2nc3cccc(N4CCN(C)CC4)c3[nH]2)N1 [I-127] |
| 0.01 to 100 nM | 0.01 to 100 nM | 1.66 | 19.7 mL/min/kg | 185 min | 539 ng·h/mL | 323 ng·h/mL | – | 0.01 | 0.031 | 10 to 30 ×10⁻⁶ cm/s | 10 to 30 ×10⁻⁶ cm/s | 0.1 to 10 | 0.54 | Cc1cccnc1[C@@H]1CCC[C@H](c2nc3cccc(N4CCN(C)C5(CC5)C4)c3[nH]2)N1 [I-132] |
